The values below come from patent US20240132464A1, “HETEROCYCLIC COMPOUNDS AS E3 LIGASE INHIBITORS” (Accutar Biotechnology Inc., priority 2022, published 2024).

In this assay the target is T1, GID4 (Uniprot ID: Q81VV7, residues 124-289) (Homo sapiens, UniProt Q8IVV7).
T1 construct: GID4 (Uniprot ID: Q81VV7, residues 124-289)
T1 sequence (Q8IVV7 124-289): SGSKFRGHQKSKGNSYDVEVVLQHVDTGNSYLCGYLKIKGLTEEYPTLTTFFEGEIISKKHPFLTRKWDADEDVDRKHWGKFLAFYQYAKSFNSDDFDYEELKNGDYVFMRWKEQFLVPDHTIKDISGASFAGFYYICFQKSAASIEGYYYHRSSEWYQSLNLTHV
The assay is described as follows: GID4 competitive binding assay (AlphaScreen, GID4/degron peptide PGLW). The settings on record: 24 nM GID4, 48 nM biotinylated degron peptide PGLW, 4° C., read-out: IC50 (Inhibition of GID4/Degron binding by test compounds). The method in brief: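 Displacement of biotin-tagged degron tetrapeptide PGLW (48 nM) from C-terminally 6His-tagged GID4 124-289 (24 nM) read by AlphaScreen proximity signal. Compound incubation 2 h, then beads 1 h, all at 4 °C, pH 7.5, 2% DMSO final; background-corrected inhibition fitted with variable slope for IC50.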
For orientation: In Alpha technology, singlet oxygen from a donor bead excites a nearby acceptor bead.
Take `Nc1nc2c(c(N3CCCC(c4ccn[nH]4)C3)n1)COCC2` (centres unmarked) [Compound 196, 4-(3-(1H-pyrazol-5-yl)piperidin-1-yl)-7,8-dihydro-5H-pyrano[4,3-d]pyrimidin-2-amine]: the IC50 was > 5 µM.
Regarding `CC(C)c1cc(Nc2cccc(CC3CCNC3=O)c2)nc(N)n1` (centres unmarked) [Compound 197, 3-(3-((2-amino-6-isopropylpyrimidin-4-yl)amino)benzyl)pyrrolidin-2-one], the IC50 is > 5 µM.
To `CC(C)c1cc(Nc2cccc(-c3cnccn3)c2)nc(N)n1` [Compound 198, 6-isopropyl-N4-(3-(pyrazin-2-yl)phenyl)pyrimidine-2,4-diamine] belongs > 5 µM; to `Nc1nc2c(c(N3CCCC(c4ccn[nH]4)C3)n1)CSC2` (centres unmarked) [Compound 199, 4-(3-(1H-pyrazol-5-yl)piperidin-1-yl)-5,7-dihydrothieno[3,4-d]pyrimidin-2-amine], > 5 µM.
To `CC(C)c1cc(N2CCNC(c3cc(Br)ccc3Br)C2)nc(N)n1` (centres unmarked) [Compound 200, 4-(3-(2,5-dibromophenyl)piperazin-1-yl)-6-isopropylpyrimidin-2-amine] belongs 0.5 to 5 µM; to `NC(=O)CCC1CCCN(c2nc(N)nc3c2CSC3)C1` (centres unmarked) [Compound 201, 3-(1-(2-amino-5,7-dihydrothieno[3,4-d]pyrimidin-4-yl)piperidin-3-yl)propanamide], > 5 µM; to `Cc1cc(N2CCCC(Nc3ccc(=O)[nH]c3)C2)nc(N)n1` (centres unmarked) [Compound 202, 5-((1-(2-amino-6-methylpyrimidin-4-yl)piperidin-3-yl)amino)pyridin-2(1H)-one], > 5 µM.
On to `CC(C)c1cc(NCCc2c[nH]c3ccccc23)nc(N)n1` [Compound 203, N4-(2-(1H-indol-3-yl)ethyl)-6-isopropylpyrimidine-2,4-diamine], for which the IC50 was > 5 µM.
To `CC(C)c1cc(N2CCNC(c3nnc[nH]3)C2)nc(N)n1` (centres unmarked) [Compound 204, 4-(3-(4H-1,2,4-triazol-3-yl)piperazin-1-yl)-6-isopropylpyrimidin-2-amine] belongs > 5 µM; to `Nc1nc(N2CCCC(c3ccn[nH]3)C2)c2cc[nH]c2n1` (centres unmarked) [Compound 205, 4-(3-(1H-pyrazol-5-yl)piperidin-1-yl)-7H-pyrrolo[2,3-d]pyrimidin-2-amine], > 5 µM.
`Nc1nc(N2CCCC(c3ccn[nH]3)C2)c2[nH]ccc2n1` (centres unmarked) [Compound 206, 4-(3-(1H-pyrazol-5-yl)piperidin-1-yl)-5H-pyrrolo[3,2-d]pyrimidin-2-amine]: the IC50 is > 5 µM.
To `Nc1nc(N2CCCC(c3ccn[nH]3)C2)c2[nH]cnc2n1` (centres unmarked) [Compound 207, 6-(3-(1H-pyrazol-5-yl)piperidin-1-yl)-7H-purin-2-amine] belongs > 5 µM; to `Nc1nc2c(c(N3CCCC(c4ccn[nH]4)C3)n1)CSCC2` (centres unmarked) [Compound 208, 4-(3-(1H-pyrazol-5-yl)piperidin-1-yl)-7,8-dihydro-5H-thiopyrano[4,3-d]pyrimidin-2-amine], > 5 µM.
Then `Cc1cc(N2CCCC(c3ccn[nH]3)C2)nc(N)n1` (centres unmarked) [Compound 209, 4-(3-(1H-pyrazol-5-yl)piperidin-1-yl)-6-methylpyrimidin-2-amine], with > 5 µM; and `CC(C)c1cc(N2CCCC(c3ccn[nH]3)C2)nc(N)n1` (centres unmarked) [Compound 210, 4-(3-(1H-pyrazol-5-yl)piperidin-1-yl)-6-isopropylpyrimidin-2-amine], with > 5 µM; and `Nc1nc(C2CC2)cc(N2CCCC(c3ccn[nH]3)C2)n1` (centres unmarked) [Compound 211, 4-(3-(1H-pyrazol-5-yl)piperidin-1-yl)-6-cyclopropylpyrimidin-2-amine], with > 5 µM.
Then `Nc1nc(C2CCC2)cc(N2CCCC(c3ccn[nH]3)C2)n1` (centres unmarked) [Compound 212, 4-(3-(1H-pyrazol-5-yl)piperidin-1-yl)-6-cyclobutylpyrimidin-2-amine], with > 5 µM; and `Nc1nc(N2CCCC(c3ccn[nH]3)C2)c2ccccc2n1` (centres unmarked) [Compound 213, 4-(3-(1H-pyrazol-5-yl)piperidin-1-yl)quinazolin-2-amine], with > 5 µM.
Turning to `Cc1nc(N)nc(N2CCCC(c3ccn[nH]3)C2)c1C` (centres unmarked) [Compound 214, 4-(3-(1H-pyrazol-5-yl)piperidin-1-yl)-5,6-dimethylpyrimidin-2-amine], the IC50 is > 5 µM.
In the case of `Cn1nccc1C1CCCN(c2nc(N)nc3c2CCC3)C1` (centres unmarked) [Compound 215, 4-(3-(1 methyl-1H-pyrazol-5-yl)piperidin-1-yl)-6,7-dihydro-5H-cyclopenta[d]pyrimidin-2-amine], the IC50 is > 5 µM.
Then `Cc1nc(N)nc(N2CCCC(c3ccn[nH]3)C2)c1Br` (centres unmarked) [Compound 216, 4-(3-(1H-pyrazol-5-yl)piperidin-1-yl)-5-bromo-6-methylpyrimidin-2-amine], with > 5 µM; and `Nc1nc(N2CCCC(c3ccn[nH]3)C2)c2sccc2n1` (centres unmarked) [Compound 217, 4-(3-(1H-pyrazol-5-yl)piperidin-1-yl)thieno[3,2-d]pyrimidin-2-amine], with > 5 µM.
To `Nc1nc(N2CCCC(c3ccn[nH]3)C2)c2cnccc2n1` (centres unmarked) [Compound 218, 4-(3-(1H-pyrazol-5-yl)piperidin-1-yl)pyrido[4,3-d]pyrimidin-2-amine] belongs > 5 µM; to `CC(C)c1cc(N2CCCNC(c3ccccc3Br)C2)nc(N)n1` (centres unmarked) [Compound 220, 4-(3-(2-bromophenyl)-1,4-diazepan-1-yl)-6-isopropylpyrimidin-2-amine], 0.5 to 5 µM.
Regarding `CC(C)c1cc(N2CC[C@@H](F)[C@@H](c3ccccc3Br)C2)nc(N)n1` [Compound 221, 4-((3S,4R)-3-(2-bromophenyl)-4-fluoropiperidin-1-yl)-6-isopropylpyrimidin-2-amine], the IC50 was < 0.5 µM.
`CC(C)c1cc(N2CCCC(O)(c3ncn4ccccc34)C2)nc(N)n1` (centres unmarked) [Compound 224, 1-(2-amino-6-isopropylpyrimidin-4-yl)-3-(imidazo[1,5-a]pyridin-1-yl)piperidin-3-ol]: the IC50 was > 5 µM.
To `Nc1cc(N2CCCC(c3ncn4ccccc34)C2)nc(N)n1` (centres unmarked) [Compound 225, 6-(3-(imidazo[1,5-a]pyridin-1-yl)piperidin-1-yl)pyrimidine-2,4-diamine] belongs 0.5 to 5 µM; to `CC(C)c1cc(N2CCCCC(O)(c3ccccc3Br)C2)nc(N)n1` (centres unmarked) [Compound 226, 1-(2-amino-6-isopropylpyrimidin-4-yl)-3-(2-bromophenyl)azepan-3-ol], > 5 µM; to `CC(C)c1cc(N2C=C(c3ccccc3Br)CCC2)nc(N)n1` [Compound 227, 4-(5-(2-bromophenyl)-3,4-dihydropyridin-1(2H)-yl)-6-isopropylpyrimidin-2-amine], 0.5 to 5 µM.
To `Nc1cc(N2CCCC(F)(c3ccccc3Br)C2)nc(N)n1` (centres unmarked) [Compound 228, 6-(3-(2-bromophenyl)-3-fluoropiperidin-1-yl)pyrimidine-2,4-diamine] belongs 0.5 to 5 µM; to `CC(C)c1cc(N2CCC=C(c3ccccc3Br)C2)nc(N)n1` [Compound 230, 4-(5-(2-bromophenyl)-3,6-dihydropyridin-1(2H)-yl)-6-isopropylpyrimidin-2-amine], > 5 µM.
`CC(C)c1cc(N2CCC(O)(c3ccccc3Br)C2)nc(N)n1` (centres unmarked) [Compound 231, 1-(2-amino-6-isopropylpyrimidin-4-yl)-3-(2-bromophenyl)pyrrolidin-3-ol]: the IC50 is > 5 µM.
To `CC(C)c1cc(N2CCCC(c3nn(C)c4ccccc34)C2)nc(N)n1` (centres unmarked) [Compound 232, 4-isopropyl-6-(3-(1-methyl-1H-indazol-3-yl)piperidin-1-yl)pyrimidin-2-amine] belongs 0.5 to 5 µM; to `CC(C)c1cc(N2CCCC(F)(c3ccccc3Br)C2)nc(N)n1` (centres unmarked) [Compound 233, 4-(3-(2-bromophenyl)-3-fluoropiperidin-1-yl)-6-isopropylpyrimidin-2-amine], 0.5 to 5 µM.
To `Nc1cc(N2CCCC(O)(c3ccccc3Br)C2)nc(N)n1` (centres unmarked) [Compound 234, 3-(2-bromophenyl)-1-(2,6-diaminopyrimidin-4-yl)piperidin-3-ol] belongs 0.5 to 5 µM; to `CC(C)c1cc(N2CCCC(c3ncn4ccccc34)C2)nc(N)n1` (centres unmarked) [Compound 235, 4-(3-(imidazo[1,5-a]pyridin-1-yl)piperidin-1-yl)-6-isopropylpyrimidin-2-amine], < 0.5 µM; to `CC(C)c1cc(N2CCCC(O)(c3ccccc3Br)C2)nc(N)n1` (centres unmarked) [Compound 236, 1-(2-amino-6-isopropylpyrimidin-4-yl)-3-(2-bromophenyl)piperidin-3-ol], 0.5 to 5 µM.
To `Nc1cc(N2CCC=C(c3ncn4ccccc34)C2)nc(N)n1` [Compound 237, 6-(5-(imidazo[1,5-a]pyridin-1-yl)-3,6-dihydropyridin-1(2H)-yl)pyrimidine-2,4-diamine] belongs 0.5 to 5 µM; to `CC(C)c1cc(N2CCC=C(c3ncn4ccccc34)C2)nc(N)n1` [Compound 238, 4-(5-(imidazo[1,5-a]pyridin-1-yl)-3,6-dihydropyridin-1(2H)-yl)-6-isopropylpyrimidin-2-amine], 0.5 to 5 µM; to `CC(C)c1cc(N2CCCC(c3cnc4ccncn34)C2)nc(N)n1` (centres unmarked) [Compound 239, 4-(3-(imidazo[1,2-c]pyrimidin-3-yl)piperidin-1-yl)-6-isopropylpyrimidin-2-amine], 0.5 to 5 µM.
Turning to `CC(C)c1cc(N2CCCC(c3cnn4ccccc34)C2)nc(N)n1` (centres unmarked) [Compound 240, 4-isopropyl-6-(3-(pyrazolo[1,5-a]pyridin-3-yl)piperidin-1-yl)pyrimidin-2-amine], the IC50 is < 0.5 µM.
